Measurements: patent publication US12281122B1, “PI3K inhibitors” (Cogent Biosciences, Inc., priority 2023, dated 2025)

Assays:
[1] = tested on: T47D (PI3Kα-H1047R) cell line; assay: HTRF phospho-AKT(S473) cell assay in T47D cells; format: cell-based, human; conditions: Homo sapiens, 2 hours compound incubation
Procedure, shortened: (§1)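 T47D (PI3Kα-H1047R; RPMI, 10% FBS, insulin) and SKBR3 (wild-type PI3Kα; McCoy's 5A, 10% FBS) cells treated 2 h at 37 °C with 12-point 1:3 dilutions, top 5 μM and 10 μM respectively, ≤0.5% DMSO. SKBR3 stimulated with 70 ng/ml PDGF-BB for the last 15 min; lysate pAKT(S473) by HTRF, IC50 from curves.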

[2] = tested on: SKBR3 (PI3Kα-Wild Type) cell line; assay: HTRF phospho-AKT(S473) cell assay in SKBR3 cells; format: cell-based, human; conditions: Homo sapiens, SK-BR-3, 2 hours compound incubation, PDGF-BB stimulated
Procedure, shortened: as §1

[3] = HTRF phospho-AKT(S473), T47D (PI3Kα-H1047R) cells
[4] = HTRF phospho-AKT(S473), SKBR3 (PI3Kα-Wild Type) cells
[5] = T47D (PI3Kα-H1047R) cells, HTRF phospho-AKT(S473)
[6] = SKBR3 (PI3Kα-Wild Type) cells, HTRF phospho-AKT(S473)

SMILES	IC50 [1, 3] [nM]	IC50 [2, 4] [nM]	further results
Cc1cc([C@@H](C)Nc2ccc(Cl)nc2C(=O)NS(C)(=O)=O)c2nc(N3[C@@H]4CC[C@H]3C[C@@H](n3cc(C)cn3)C4)n(C)c(=O)c2c1 [Compound 482, 6-chloro-3-(((R)-1-(3,6-dimethyl-2-((1R,3R,5S)-3-(4-methyl-1H-pyrazol-1-yl)-8-azabicyclo[3.2.1]octan-8-yl)-4-oxo-3,4-dihydroquinazolin-8-yl)ethyl)amino)-N-(methylsulfonyl) picolinamide]	< 250	1000 to 5000	–
Cc1cc([C@@H](C)Nc2ccc(Cl)nc2C(=O)NS(C)(=O)=O)c2nc(N3CCn4nc(C)cc4C3)n(C)c(=O)c2c1 [Compound 166]	–	–	IC50 [1, 5]: < 250 nM; IC50 [2, 6]: 1000 to 5000 nM
Cc1cc([C@@H](C)Nc2ccc(Cl)nc2C(=O)NS(C)(=O)=O)c2nc(N3CC[C@H](Oc4cncnc4)C3)n(C)c(=O)c2c1 [Compound 354, 6-chloro-3-(((R)-1-(3,6-dimethyl-4-oxo-2-((S)-3-(pyrimidin-5-yloxy)pyrrolidin-1-yl)-3,4-dihydroquinazolin-8-yl)ethyl)amino)-N-(methylsulfonyl) picolinamide]	–	–	IC50 [1, 5]: < 250 nM; IC50 [2, 6]: 1000 to 5000 nM
Cc1cc([C@@H](C)Nc2ccc(Cl)nc2C(=O)NS(C)(=O)=O)c2nc(N3C[C@@H]4[C@H](C3)[C@H]4c3ccnc(C)c3)n(C)c(=O)c2c1 [Compound 384, 6-chloro-3-(((R)-1-(3,6-dimethyl-2-((1R,5S,6S)-6-(2-methylpyridin-4-yl)-3-azabicyclo[3.1.0]hexan-3-yl)-4-oxo-3,4-dihydroquinazolin-8-yl)ethyl)amino)-N-(methylsulfonyl) picolinamide]	–	–	IC50 [1, 5]: < 250 nM; IC50 [2, 6]: 1000 to 5000 nM
Cc1cc([C@@H](C)Nc2ccc(Cl)nc2C(=O)NS(C)(=O)=O)c2nc(-c3ccc4nn(C)cc4n3)n(C)c(=O)c2c1 [Compound 841, (R)-6-chloro-3-((1-(3,6-dimethyl-2-(2-methyl-2H-pyrazolo [4,3-b]pyridin-5-yl)-4-oxo-3,4-dihydroquinazolin-8-yl)ethyl)amino)-N-(methylsulfonyl) picolinamide]	–	–	IC50 ([1]; T47D (PI3Kα-H1047R) cell line, phospho-AKT(S473) HTRF): 250 to 500 nM; IC50 ([2]; SKBR3 (PI3Kα-Wild Type) cell line, phospho-AKT(S473) HTRF): 1000 to 5000 nM
Cc1cc([C@@H](C)Nc2ccc(Cl)nc2C(=O)NS(C)(=O)=O)c2nc(N3CCC(c4cc5n(n4)CCO5)CC3)n(C)c(=O)c2c1 [Compound 556, (R)-6-chloro-3-((1-(2-(4-(2,3-dihydropyrazolo[5,1-b]oxazol-6-yl)piperidin-1-yl)-3,6-dimethyl-4-oxo-3,4-dihydroquinazolin-8-yl)ethyl)amino)-N-(methylsulfonyl) picolinamide]	< 250	1000 to 5000	–
Cc1cc([C@@H](C)Nc2ccc(Cl)nc2C(=O)NS(C)(=O)=O)c2nc(-c3ccnc(O[C@@H]4CCNCC4(F)F)c3)n(C)c(=O)c2c1 [Compound 808, 6-chloro-3-(((R)-1-(2-(2-(((R)-3,3-difluoropiperidin-4-yl)oxy)pyridin-4-yl)-3,6-dimethyl-4-oxo-3,4-dihydroquinazolin-8-yl)ethyl)amino)-N-(methylsulfonyl) picolinamide]	250 to 500	≥ 5000	–
Cc1cc([C@@H](C)Nc2ccc(Cl)nc2C(=O)NS(C)(=O)=O)c2nc(N3CC[C@H](c4cnc(C)c(C#N)c4)C3)n(C)c(=O)c2c1 (single isomer, unassigned) [Compound 655, 6-chloro-3-(((R)-1-(2-((R*)-3-(5-cyano-6-methylpyridin-3-yl)pyrrolidin-1-yl)-3,6-dimethyl-4-oxo-3,4-dihydroquinazolin-8-yl)ethyl)amino)-N-(methylsulfonyl) picolinamide]	1000 to 5000	≥ 5000	–
[2H]C([2H])([2H])n1ccc([C@H]2[C@@H]3CN(c4nc5c([C@@H](C)Nc6ccc(Cl)nc6C(=O)NS(C)(=O)=O)cc(C)cc5c(=O)n4C)C[C@@H]32)n1 [Compound 493, 6-chloro-3-(((R)-1-(3,6-dimethyl-2-((1R,5S,6R)-6-(1-(methyl-d3)-1H-pyrazol-3-yl)-3-azabicyclo[3.1.0]hexan-3-yl)-4-oxo-3,4-dihydroquinazolin-8-yl)ethyl)amino)-N-(methylsulfonyl) picolinamide]	< 250	1000 to 5000	–
Cc1cc([C@@H](C)Nc2ccc(Cl)nc2C(=O)NS(C)(=O)=O)c2nc(-c3ccc4c(c3)CN(C)C4=O)n(C)c(=O)c2c1 [Compound 796, (R)-6-chloro-3-((1-(3,6-dimethyl-2-(2-methyl-1-oxoisoindolin-5-yl)-4-oxo-3,4-dihydroquinazolin-8-yl)ethyl)amino)-N-(methylsulfonyl) picolinamide]	< 250	1000 to 5000	–
Cc1cc([C@@H](C)Nc2ccc(Cl)nc2C(=O)NS(C)(=O)=O)c2nc(N3CCC(c4nn(C5COC5)cc4F)CC3)n(C)c(=O)c2c1 [Compound 759, (R)-6-chloro-3-((1-(2-(4-(4-fluoro-1-(oxetan-3-yl)-1H-pyrazol-3-yl)piperidin-1-yl)-3,6-dimethyl-4-oxo-3,4-dihydroquinazolin-8-yl)ethyl)amino)-N-(methylsulfonyl) picolinamide]	250 to 500	1000 to 5000	–
CCn1c(N2C[C@@H]3[C@H](C2)[C@H]3c2cnc(C)nc2)nc2c([C@@H](C)Nc3ccc(Cl)nc3C(=O)NS(C)(=O)=O)cc(C)cc2c1=O [Compound 584, 6-chloro-3-(((R)-1-(3-ethyl-6-methyl-2-((1R,5S,6S)-6-(2-methylpyrimidin-5-yl)-3-azabicyclo[3.1.0]hexan-3-yl)-4-oxo-3,4-dihydroquinazolin-8-yl)ethyl)amino)-N-(methylsulfonyl) picolinamide]	< 250	1000 to 5000	–
Cc1cc([C@@H](C)Nc2ccc(Cl)nc2C(=O)NS(C)(=O)=O)c2nc(N3C[C@H]4CC4(c4cnc(C)cn4)C3)n(C)c(=O)c2c1 (relative stereo) [Compound 749, 6-chloro-3-(((R)-1-(3,6-dimethyl-2-((1R*,5S*)-1-(5-methylpyrazin-2-yl)-3-azabicyclo[3.1.0]hexan-3-yl)-4-oxo-3,4-dihydroquinazolin-8-yl)ethyl)amino)-N-(methylsulfonyl) picolinamide]	250 to 500	≥ 5000	–
Cc1cc([C@@H](C)Nc2ccc(Cl)nc2C(=O)NS(C)(=O)=O)c2nc(N(C)CC3(C(F)(F)F)CC3)n(C)c(=O)c2c1 [Compound 163, (R)-6-chloro-3-((1-(3,6-dimethyl-2-(methyl((1-(trifluoromethyl)cyclopropyl)methyl)amino)-4-oxo-3,4-dihydroquinazolin-8-yl)ethyl)amino)-N-(methylsulfonyl) picolinamide]	–	–	IC50 [1, 5]: 250 to 500 nM; IC50 [2, 6]: 1000 to 5000 nM
Cc1cc([C@@H](C)Nc2ccc(Cl)nc2C(=O)NS(C)(=O)=O)c2nc(N3Cc4cnn(CC(F)(F)F)c4C3)n(C3CC3)c(=O)c2c1 [Compound 736, (R)-6-chloro-3-((1-(3-cyclopropyl-6-methyl-4-oxo-2-(1-(2,2,2-trifluoroethyl)-4,6-dihydropyrrolo[3,4-c]pyrazol-5(1H)-yl)-3,4-dihydroquinazolin-8-yl)ethyl)amino)-N-(methylsulfonyl) picolinamide]	500 to 1000	≥ 5000	–
Cc1cc([C@@H](C)Nc2ccc(Cl)nc2C(=O)NS(C)(=O)=O)c2nc(N3CCC(c4csc(C)n4)CC3)n(C)c(=O)c2c1 [Compound 503, (R)-6-chloro-3-((1-(3,6-dimethyl-2-(4-(2-methylthiazol-4-yl)piperidin-1-yl)-4-oxo-3,4-dihydroquinazolin-8-yl)ethyl)amino)-N-(methylsulfonyl) picolinamide]	< 250	1000 to 5000	–
